Assays:
Assay type in all cases: in vivo
[1] = system: Monochoria vaginalis; assay: Test Example 2: herbicidal activity, application during weed generation in submerged conditions; conditions: Eighteenth Table; application herbicide amount 320 g/ha
Procedure, shortened: (§1)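 Alluvial soil in Wagner pots flooded to 4 cm water depth; seeds sown mixed, grown in greenhouse at 25–30 °C. At one- to two-leaf stage, emulsion diluted with water to the set rate (g/ha) was applied to the water surface. Effect scored 0–5 by herbicidal ratio three weeks later.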

[2] = system: Echinochloa oryzacola Vasing.; assay: as above; conditions: Eighteenth Table; application herbicide amount 320 g/ha
Procedure, shortened: as §1

[3] = system: Scirpus juncoides; assay: as above; conditions: Eighteenth Table; application herbicide amount 320 g/ha
Procedure, shortened: as §1

[4] = system: Veronica persica; assay: Test Example 4: herbicidal effect by application to foliage (diluvial soil, plastic box); conditions: Application herbicide amount 320 g/ha
Procedure, shortened: (§2)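 Scores run from 0 (herbicidal ratio ≤5%) to 5 (≥90%, almost fully withered) and were assessed three weeks after foliar spraying. Seedlings had been raised for 14 days at 25-30° C in sterilized diluvial soil before treatment, with the emulsion diluted in water to the stated g/ha dose.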

[5] = system: Apera spica-venti.; assay: as above; conditions: Application herbicide amount 320 g/ha
Procedure, shortened: as §2

[6] = system: Echinochloa crus-galli var. crus-galli; assay: as above; conditions: Application herbicide amount 320 g/ha
Procedure, shortened: as §2

[7] = system: Abutilon theophrasti; assay: as above; conditions: Application herbicide amount 320 g/ha
Procedure, shortened: as §2

[8] = system: Avena fatua; assay: as above; conditions: Application herbicide amount 320 g/ha
Procedure, shortened: as §2

[9] = system: Lolium multiflorum Lam.; assay: as above; conditions: Application herbicide amount 320 g/ha
Procedure, shortened: as §2

[10] = system: Chenopodium album; assay: as above; conditions: Application herbicide amount 320 g/ha
Procedure, shortened: as §2

[11] = system: Alopecurus myosuroides; assay: as above; conditions: Application herbicide amount 320 g/ha
Procedure, shortened: as §2

[12] = system: Setaria viridis; assay: as above; conditions: Application herbicide amount 320 g/ha
Procedure, shortened: as §2

[13] = system: Beta vulgaris ssp. vulgaris; assay: Test Example 4: effect on crop by application to foliage (diluvial soil, plastic box); conditions: Application herbicide amount 320 g/ha; effect on crop
Procedure, shortened: as §2

[14] = system: directly sowed Oryza sativa; assay: as above; conditions: Application herbicide amount 320 g/ha; effect on crop
Procedure, shortened: as §2

[15] = system: Glycine max; assay: as above; conditions: Application herbicide amount 320 g/ha; effect on crop
Procedure, shortened: as §2

[16] = system: Zea mays; assay: as above; conditions: Application herbicide amount 320 g/ha; effect on crop
Procedure, shortened: as §2

[17] = system: Brassica campestris L.; assay: as above; conditions: Application herbicide amount 320 g/ha; effect on crop
Procedure, shortened: as §2

[18] = system: Triticum aestivum; assay: as above; conditions: Application herbicide amount 320 g/ha; effect on crop
Procedure, shortened: as §2

Compound	C (Monochoria vaginalis) herbicidal ratio grade [1]	A (Echinochloa oryzicola Vasing.) herbicidal ratio grade [2]	B (Scirpus juncoides) herbicidal ratio grade [3]	R [4]	L [5]	H [6]	M [7]	I [8]	K [9]	O [10]	J [11]	G [12]	f [13]	d [14]	c [15]	b [16]	g [17]	e [18]
Cc1nnc(NC(=O)c2ccc(C(F)(F)F)n3c(CC[S+](C)[O-])nnc23)o1 (stereo not drawn) [1-084]	0 (Herbicidal ratio of 5% or less (almost no effect))	2 (Herbicidal ratio of 20% or more and less than 40%)	1 (Herbicidal ratio of 5% or more and less than 20%)	5 (Herbicidal ratio of 90% or more (almost completely withered))	0 (Herbicidal ratio of 5% or less (almost no effect))	5 (Herbicidal ratio of 90% or more (almost completely withered))	5 (Herbicidal ratio of 90% or more (almost completely withered))	3 (Herbicidal ratio of 40% or more and less than 70%)	0 (Herbicidal ratio of 5% or less (almost no effect))	5 (Herbicidal ratio of 90% or more (almost completely withered))	0 (Herbicidal ratio of 5% or less (almost no effect))	5 (Herbicidal ratio of 90% or more (almost completely withered))	4 (Herbicidal ratio of 70% or more and less than 90%)	4 (Herbicidal ratio of 70% or more and less than 90%)	1 (Herbicidal ratio of 5% or more and less than 20%)	3 (Herbicidal ratio of 40% or more and less than 70%)	4 (Herbicidal ratio of 70% or more and less than 90%)	0 (Herbicidal ratio of 5% or less (almost no effect))
Cc1nnc(NC(=O)c2ccc(C(F)(F)F)n3c(N(C)c4ccccc4)nnc23)o1 [1-086]	4 (Herbicidal ratio of 70% or more and less than 90%)	4 (Herbicidal ratio of 70% or more and less than 90%)	4 (Herbicidal ratio of 70% or more and less than 90%)	4 (Herbicidal ratio of 70% or more and less than 90%)	0 (Herbicidal ratio of 5% or less (almost no effect))	5 (Herbicidal ratio of 90% or more (almost completely withered))	5 (Herbicidal ratio of 90% or more (almost completely withered))	0 (Herbicidal ratio of 5% or less (almost no effect))	0 (Herbicidal ratio of 5% or less (almost no effect))	5 (Herbicidal ratio of 90% or more (almost completely withered))	0 (Herbicidal ratio of 5% or less (almost no effect))	4 (Herbicidal ratio of 70% or more and less than 90%)	5 (Herbicidal ratio of 90% or more (almost completely withered))	1 (Herbicidal ratio of 5% or more and less than 20%)	1 (Herbicidal ratio of 5% or more and less than 20%)	1 (Herbicidal ratio of 5% or more and less than 20%)	4 (Herbicidal ratio of 70% or more and less than 90%)	0 (Herbicidal ratio of 5% or less (almost no effect))
Cc1nnc(NC(=O)c2ccc(C(F)(F)F)n3c(NC(C)C)nnc23)o1 [1-090]	3 (Herbicidal ratio of 40% or more and less than 70%)	2 (Herbicidal ratio of 20% or more and less than 40%)	1 (Herbicidal ratio of 5% or more and less than 20%)	5 (Herbicidal ratio of 90% or more (almost completely withered))	1 (Herbicidal ratio of 5% or more and less than 20%)	5 (Herbicidal ratio of 90% or more (almost completely withered))	3 (Herbicidal ratio of 40% or more and less than 70%)	3 (Herbicidal ratio of 40% or more and less than 70%)	1 (Herbicidal ratio of 5% or more and less than 20%)	5 (Herbicidal ratio of 90% or more (almost completely withered))	1 (Herbicidal ratio of 5% or more and less than 20%)	3 (Herbicidal ratio of 40% or more and less than 70%)	5 (Herbicidal ratio of 90% or more (almost completely withered))	4 (Herbicidal ratio of 70% or more and less than 90%)	1 (Herbicidal ratio of 5% or more and less than 20%)	0 (Herbicidal ratio of 5% or less (almost no effect))	4 (Herbicidal ratio of 70% or more and less than 90%)	0 (Herbicidal ratio of 5% or less (almost no effect))
CC(C)Sc1nnc2c(C(=O)Nc3nnco3)ccc(C(F)(F)F)n12 [1-091]	5 (Herbicidal ratio of 90% or more (almost completely withered))	5 (Herbicidal ratio of 90% or more (almost completely withered))	5 (Herbicidal ratio of 90% or more (almost completely withered))	5 (Herbicidal ratio of 90% or more (almost completely withered))	3 (Herbicidal ratio of 40% or more and less than 70%)	5 (Herbicidal ratio of 90% or more (almost completely withered))	5 (Herbicidal ratio of 90% or more (almost completely withered))	4 (Herbicidal ratio of 70% or more and less than 90%)	3 (Herbicidal ratio of 40% or more and less than 70%)	5 (Herbicidal ratio of 90% or more (almost completely withered))	2 (Herbicidal ratio of 20% or more and less than 40%)	5 (Herbicidal ratio of 90% or more (almost completely withered))	5 (Herbicidal ratio of 90% or more (almost completely withered))	4 (Herbicidal ratio of 70% or more and less than 90%)	2 (Herbicidal ratio of 20% or more and less than 40%)	0 (Herbicidal ratio of 5% or less (almost no effect))	5 (Herbicidal ratio of 90% or more (almost completely withered))	3 (Herbicidal ratio of 40% or more and less than 70%)
CCC[S+]([O-])c1nnc2c(C(=O)Nc3nnc(C)o3)ccc(C(F)(F)F)n12 (stereo not drawn) [1-092]	3 (Herbicidal ratio of 40% or more and less than 70%)	4 (Herbicidal ratio of 70% or more and less than 90%)	4 (Herbicidal ratio of 70% or more and less than 90%)	5 (Herbicidal ratio of 90% or more (almost completely withered))	1 (Herbicidal ratio of 5% or more and less than 20%)	5 (Herbicidal ratio of 90% or more (almost completely withered))	4 (Herbicidal ratio of 70% or more and less than 90%)	2 (Herbicidal ratio of 20% or more and less than 40%)	1 (Herbicidal ratio of 5% or more and less than 20%)	5 (Herbicidal ratio of 90% or more (almost completely withered))	1 (Herbicidal ratio of 5% or more and less than 20%)	5 (Herbicidal ratio of 90% or more (almost completely withered))	5 (Herbicidal ratio of 90% or more (almost completely withered))	4 (Herbicidal ratio of 70% or more and less than 90%)	1 (Herbicidal ratio of 5% or more and less than 20%)	5 (Herbicidal ratio of 90% or more (almost completely withered))	3 (Herbicidal ratio of 40% or more and less than 70%)	0 (Herbicidal ratio of 5% or less (almost no effect))
Cc1nnc(NC(=O)c2ccc(C(F)(F)F)n3c(SCC(C)C)nnc23)o1 [1-093]	3 (Herbicidal ratio of 40% or more and less than 70%)	3 (Herbicidal ratio of 40% or more and less than 70%)	3 (Herbicidal ratio of 40% or more and less than 70%)	4 (Herbicidal ratio of 70% or more and less than 90%)	1 (Herbicidal ratio of 5% or more and less than 20%)	5 (Herbicidal ratio of 90% or more (almost completely withered))	4 (Herbicidal ratio of 70% or more and less than 90%)	1 (Herbicidal ratio of 5% or more and less than 20%)	1 (Herbicidal ratio of 5% or more and less than 20%)	5 (Herbicidal ratio of 90% or more (almost completely withered))	0 (Herbicidal ratio of 5% or less (almost no effect))	3 (Herbicidal ratio of 40% or more and less than 70%)	5 (Herbicidal ratio of 90% or more (almost completely withered))	3 (Herbicidal ratio of 40% or more and less than 70%)	4 (Herbicidal ratio of 70% or more and less than 90%)	0 (Herbicidal ratio of 5% or less (almost no effect))	3 (Herbicidal ratio of 40% or more and less than 70%)	0 (Herbicidal ratio of 5% or less (almost no effect))
